Where no end group is shown, it is not given here.
How the values were obtained:
AFP+/HLA A2.1+ HepG2 = assay: 4 hour 51Cr-release assay of peptide-generated CTL against HepG2; type: cell-based, human
Protocol: IL-2 was added twice weekly at 10 units/ml. […] Non-specific NK killing was assessed with the NK sensitive target K562. The CTL were also tested against the HLA A2.1-positive, AFP-positive human hepatocellular carcinoma cell line, HepG2. Referring now to Table III, there are shown the cytotoxicity results of tests for the twelve AFP peptide sequences used to generate CTL from normal donors that gave positive peptide cytotoxicity results. […] Further, new AFP49 peptide-generated CTL cultures were made using two different, normal HLA A2.1 donors. Additional targets were used to confirm that the cytotoxicity observed using AFP49 was AFP antigen-specific and class I restricted. Referring now to FIG. 1, there is shown representative data of these tests. First, to confirm that the observed cytotoxicity was class I restricted, anti-β2 microglobulin antibody was used to block the CTL-T cell receptor interaction on HepG2 cells. […] Next, to eliminate non-specific NK/LAK killing, a 40-fold excess of unlabeled (cold) K562 cells was added. […] Also, an AFP+, HLA A2.1-negative hepatocellular carcinoma cell line, Hep3B, that is, a class I-mismatched hepatocellular carcinoma cell line, was also used as a target. […] This small amount of observed Hep3B lysis was eliminated by adding an excess of cold K562 cells, in contrast to the retention of specific killing of HepG2 when cold K562 cells were added.

HLA A2.1 [1] = biological target: T1, HLA A2.1 (Homo sapiens, UniProt P04439, D140Y/D185E/D98H/E176V/E277Q/G131W/G231S/I119V/I121R/I166T/I218V/L300P/L318F/N151K/N90K/P208A/P217A/Q86G/Q94H/R138H/R169H/T345S); assay: EBV lymphoblastoid cell off-kinetics assay; type: binding; conditions: for Time of Peptide Stability on Lymphoblastoid Cells: pulsed at 200 μM for 1 hour, followed 0, 2, 4 and 6 hours at 37° C., (n.s.) = not stable
From the text: The cells were washed at the end of each time point and stained for HLA A2 with the BB7.2 antibody.

HLA A2.1 [2] = biological target: T1, HLA A2.1; assay: T2 cell stabilization assay; type: binding; conditions: peptide tested 0.1 μM-100 μM; flow cytometry with BB7.2; (n.s.) = not stable
[3] = test system: M202 (HLA A2.1+/AFP-) melanoma cells transduced with AdVhAFP; assay: chromium release assay of peptide-specific CTL against M202 cells transduced with AdVhAFP or control AdVRR5; type: cell-based, human; conditions: FIG. 2
[4] = test system: T2 cells pulsed with the specific peptide; conditions: FIG. 2; T2 pulsed with specific peptide versus a different HLA A2.1 binding peptide

Sequence: FMNKFIYEI [AFP5]
- AFP+/HLA A2.1+ HepG2 Cytotoxicity (AFP+/HLA A2.1+ HepG2; E:T 5:1): 4%
- AFP+/HLA A2.1+ HepG2 Cytotoxicity (AFP+/HLA A2.1+ HepG2; E:T 20:1): 7%

Sequence: FQAITVTKL [AFP45]
- AFP+/HLA A2.1+ HepG2 Cytotoxicity (AFP+/HLA A2.1+ HepG2; E:T 10:1): 9%
- AFP+/HLA A2.1+ HepG2 Cytotoxicity (AFP+/HLA A2.1+ HepG2; E:T 50:1): 27%

Sequence: FQKLGEYYL [AFP34, residues 419-427 of hAFP]
- Time of Peptide Stability on Lymphoblastoid Cells (HLA A2.1 [1]): (n.s.)
- Minimum Concentration of Peptide to Stabilize A2 on T2 cells (HLA A2.1 [2]): 100 µM

Sequence: FVQEATYKF [AFP8, residues 54-62 of hAFP]
- Time of Peptide Stability on Lymphoblastoid Cells (HLA A2.1 [1]): >2 h
- Minimum Concentration of Peptide to Stabilize A2 on T2 cells (HLA A2.1 [2]): (n.s.)

Sequence: GVALQTMKL (listed as Homo sapiens) [AFP49L9, single amino acid substitution in position 9 of AFP49]
- killing of M202/AdVhAFP compared with AFP49 peptide-specific CTL cultures [3]: even more effectively
- killing of M202/AdVhAFP versus M202/RR5 [3]: significantly more killing of M202 cells transduced with AdVhAFP

Sequence: GVALQTMKQ [AFP49]
- AFP+/HLA A2.1+ HepG2 Cytotoxicity (AFP+/HLA A2.1+ HepG2; E:T 10:1): 17%
- AFP+/HLA A2.1+ HepG2 Cytotoxicity (AFP+/HLA A2.1+ HepG2; E:T 50:1): 45%

Sequence: GVALQTMKV (listed as Homo sapiens) [AFP49V9]
- killing of M202/AdVhAFP compared with AFP49 peptide-specific CTL cultures [3]: even more effectively
- killing of M202/AdVhAFP versus M202/RR5 [3]: significantly more killing of M202 cells transduced with AdVhAFP
- peptide specificity of CTL culture [4]: showed peptide specificity

Sequence: ILLWAARYD [AFP18, residues 178-186 of hAFP]
- Time of Peptide Stability on Lymphoblastoid Cells (HLA A2.1 [1]): >6 h
- Minimum Concentration of Peptide to Stabilize A2 on T2 cells (HLA A2.1 [2]): (n.s.)

Sequence: KELRESSLL [AFP16, residues 211-219 of hAFP]
- Time of Peptide Stability on Lymphoblastoid Cells (HLA A2.1 [1]): 2 h
- Minimum Concentration of Peptide to Stabilize A2 on T2 cells (HLA A2.1 [2]): (n.s.)

Sequence: KLVLDVAHV [AFP4]
- AFP+/HLA A2.1+ HepG2 Cytotoxicity (AFP+/HLA A2.1+ HepG2; E:T 5:1): 4%
- AFP+/HLA A2.1+ HepG2 Cytotoxicity (AFP+/HLA A2.1+ HepG2; E:T 20:1): 7%

Sequence: KMVKDALTAI [AFP64, residues 65-74 of hAFP]
- Time of Peptide Stability on Lymphoblastoid Cells (HLA A2.1 [1]): (n.s.)
- Minimum Concentration of Peptide to Stabilize A2 on T2 cells (HLA A2.1 [2]): 100 µM

Sequence: KQEFLINLV [AFP37]
- AFP+/HLA A2.1+ HepG2 Cytotoxicity (AFP+/HLA A2.1+ HepG2; E:T 5:1): 0%
- AFP+/HLA A2.1+ HepG2 Cytotoxicity (AFP+/HLA A2.1+ HepG2; E:T 25:1): 2%

Sequence: LLNFTESRT [AFP7]
- AFP+/HLA A2.1+ HepG2 Cytotoxicity (AFP+/HLA A2.1+ HepG2; E:T 10:1): 6%
- AFP+/HLA A2.1+ HepG2 Cytotoxicity (AFP+/HLA A2.1+ HepG2; E:T 50:1): 15%

Sequence: MKWVESIFL [AFP38]
- AFP+/HLA A2.1+ HepG2 Cytotoxicity (AFP+/HLA A2.1+ HepG2; E:T 10:1): 0%
- AFP+/HLA A2.1+ HepG2 Cytotoxicity (AFP+/HLA A2.1+ HepG2; E:T 50:1): 12%

Sequence: NLVKQKPQI [AFP23]
- AFP+/HLA A2.1+ HepG2 Cytotoxicity (AFP+/HLA A2.1+ HepG2; E:T 5:1): 2%
- AFP+/HLA A2.1+ HepG2 Cytotoxicity (AFP+/HLA A2.1+ HepG2; E:T 20:1): 15%

Sequence: PVNPGVGQC [AFP39]
- AFP+/HLA A2.1+ HepG2 Cytotoxicity (AFP+/HLA A2.1+ HepG2; E:T 10:1): 12%
- AFP+/HLA A2.1+ HepG2 Cytotoxicity (AFP+/HLA A2.1+ HepG2; E:T 50:1): 29%

Sequence: QLTSSELMAI [AFP14, residues 441-450 of hAFP]
- off-kinetics (in words) (HLA A2.1 [1]): slow off-kinetics
- Time of Peptide Stability on Lymphoblastoid Cells (HLA A2.1 [1]): >2 h
- Minimum Concentration of Peptide to Stabilize A2 on T2 cells (HLA A2.1 [2]): 50.0 µM

Sequence: SLVVDETYV [AFP17, residues 514-522 of hAFP]
- Time of Peptide Stability on Lymphoblastoid Cells (HLA A2.1 [1]): (n.s.)
- Minimum Concentration of Peptide to Stabilize A2 on T2 cells (HLA A2.1 [2]): 1.0 µM

Sequence: TLSNKITEC [AFP60, residues 294-302 of hAFP]
- Time of Peptide Stability on Lymphoblastoid Cells (HLA A2.1 [1]): (n.s.)
- Minimum Concentration of Peptide to Stabilize A2 on T2 cells (HLA A2.1 [2]): 50 µM

Sequence: TMKQEFLINL [AFP22]
- AFP+/HLA A2.1+ HepG2 Cytotoxicity (AFP+/HLA A2.1+ HepG2; E:T 5:1): 9%
- AFP+/HLA A2.1+ HepG2 Cytotoxicity (AFP+/HLA A2.1+ HepG2; E:T 20:1): 24%

Sequence: YICSQQDTL [AFP28, residues 287-295 of hAFP]
- Time of Peptide Stability on Lymphoblastoid Cells (HLA A2.1 [1]): 2 h
- Minimum Concentration of Peptide to Stabilize A2 on T2 cells (HLA A2.1 [2]): 50 µM

Sequence: YIQESQALA [AFP13, residues 404-412 of hAFP]
- Time of Peptide Stability on Lymphoblastoid Cells (HLA A2.1 [1]): >2 h
- Minimum Concentration of Peptide to Stabilize A2 on T2 cells (HLA A2.1 [2]): 10.0 µM
